The subject of test [1] is T cells. Put plainly: RNA sequencing of T cells exposed to DMSO or UA. It counts as cell-based. To be noted: 48 hours. Here is the method: (FIG. 5B) RNAseq expression heatmap of selected genes: Genes associated with immune checkpoints, effector molecules and genes encoding for leukocyte migration. (FIG. 5C) Expression of genes associated with T cell memory vs effector fate decisions. Data underwent z-score normalization for display (n=3 per group). […] T cells were stimulated for 48 h in vitro at the presence of the indicated treatments. Data are mean ± SD (n=4/4/3), statistical analysis was performed by two-sided t-test (p***<0.01; p****0.0001). (FIG. 5E) Quantification of TSCM formation within CD8+ cells after 48 h of in vitro stimulation under various treatment conditions, including TCF1 inhibition by ICG001 (DMSO, UA, TCF1i n=4; TCFi+UA n=3). Data are mean ± SD, statistical analysis was performed by two-sided t-test (*p < 0.05; n.s. not significant). One of two independent experiments are shown. (FIG. 5F) Western blot analysis of β-Catenin phosphorylation status in CD3+ cells stimulated via plate-bound aCD3/aCD28 antibodies for 6h. N=3 per group. (FIG. 5G) Cytosolic fractionation of CD3+ cells stimulated for six hours in the presence of Urolithin or DMSO control (c= cytosolic, m = mitochondrial fraction). Experiment was repeated twice.
(FIG. 8A) Ingenuity pathway upstream regulator analysis of UA treated T cells. Assessed from RNAseq data. Plausible upregulation is depicted by z score, significance is shown on the overlying dot spot. Genes with a log2 fold change of 1 and p<0.05 were initially considered.
To explore the downstream events linking mitophagy to TSCM formation, we performed RNA sequencing to globally assess differential gene expression in T cells exposed for 48 hours to either DMSO or UA in vitro. […] Indeed, when we applied ICG001 to pharmacologically block TCF-1, UA-induced TSCM formation in vitro was abrogated (FIGS. 5D-E).

Test [2] deals with APTK tumors. Nature of the test: Oral UA in Pink1-/- mice with s.c. APTK tumors. The test is classed as in vivo. Here is the method: (FIG. 4A) Scheme of CD3+ T-cell activation and analysis for various timepoints in order to investigate mitophagy induction in vitro. (FIG. 4B) Analysis of mitochondrial membrane potential within CD8+ T cells, with TMRM^lo representing cells with low mitochondrial membrane potential. Analysis was performed six hours after stimulation with aCD/aCD28 stimulation beads at the presence of the indicated treatments. N=4 per group, *p < 0.05 by Mann Whitney U test. One of two independent experiments are shown. (FIG. 4C) Representative flow histogram and quantification of lysosome formation in CD8+ cells six hours after in vitro stimulation. MFI shown relative to DMSO controls, n=4. Data are normalised mean ± SD, statistical analysis by two-sided t-test. One out of two independent experiments are shown. (FIG. 4D) Mitotracker Red staining of in vitro stimulated CD8+ cells after 24 hours of Urolithin A (UA25 n=6; UA50 n=6) or vehicle control treatment (DMSO: n=4). A representative flow histogram depicting identification of Mitotracker^hi cells is shown. Data are mean ± SD, statistical analysis was performed by two-sided t-test (*p < 0.05; ***p <0.001; ****p < 0.0001). Experiment was repeated twice. (FIG. 4E) Subset-specific identification of Mitotracker red accumulation after 24 hours of in vitro stimulation either with vehicle control (DMSO) or 50 µM Urolithin A (n=5). Subsets were identified was depicted in the FIGS. 7-9. Data are mean ± SD, statistical analysis by two-sided t-test (* p<0.05, *** p<0.001 and **** p<0.0001). (FIG. 4F) qPCR analysis of various autophagy/mitophagy associated genes of in vitro activated CD3+ cells, 24 h after activation (n=3). Data are ± SEM, statistical analysis was performed by two-sided t-test (*p < 0.05,**p < 0.01). Overall p value is given for the comparison over the entire panel of genes after two-way ANOVA test. (FIG. 4G) Western blot of Parkin protein expression in UA or DMSO (n=3) treated cells after 24 h. Cells were stimulated at the presence of plate-bound aCD3/aCD28 antibodies. […] (FIG. 4H) CD8+ cells from Pink1^-/- mice display deficient mitophagy upon UA treatment in vitro: Lysosome formation in CD8+ of Pink1^-/- mice as assessed by Lysotracker staining 6h post stimulation at the presence of UA or DMSO (n=4). Data are mean ± SD, one out of two independent experiments are shown. (FIG. 4I) CD8+ cells from Pink1^-/- mice display deficient mitophagy upon UA treatment in vitro: Mitotracker red staining of Pink1^-/- CD8+ stimulated in vitro for 48 h, either in the presence of UA or DMSO (n=4). Percentage of Mitotracker^hi CD8+ cells are shown. Data are mean ± SD and acquired via flow cytometry. […] Quantification of TCF1^hi cells among CD8. (FIG. 4N) Quantification of PD1^hi cells among CD8. (FIG. 4O) Quantification of and Tim3^hi cells among CD8. […]

Test [3] concerns CEA-expressing human CRC organoids. Put plainly: Killing of CEA-expressing CRC organoids by CEA-specific CAR T cells. The test is classed as cell-based. To be noted: 72 h co-culture.
In test [4] the test system is NALM-6 leukemia cells. Put plainly: Killing of NALM-6 cells by CD19-CAR T cells. It counts as cell-based, human. The note with it: 24 h co-culture.

Take `O=c1oc2cc(O)ccc2c2ccc(O)cc12` [Urolithin A]: in test [1], the “effector fate associated genes Prdm1 and Id2” value was “reduced expression”; the “expression of Cd27, Ccr7 and adhesion genes” value is recorded as “enhancing expression”; the “expression of genes coding for immune checkpoints and effector molecules” value is listed as “reduced the expression”; the “genes involved in memory formation (Tcf7, Bach2, Bcl6)” value was “special enrichment”. The “ex vivo cytokine release of CD8+ TIL” value in test [2] (PMA and Ionomycin restimulation) is “did not exhibit differences”. In test [2] (UA or control diet), the “TCF-1 expression in CD8+ TIL” value was “did not exhibit differences” and the “exhaustion markers in CD8+ TIL” value is “did not exhibit differences”. In addition, in test [2] (UA-rich or control diet), the “tumor suppressive effect of UA (growth curve)” value was “abrogated the tumor suppressive effect of UA”. In test [3], the “killing efficacy of CEA-expressing human CRC organoids” value is listed as “comparable killing efficacy”. Moreover, in test [4], the “CD19 CAR-T cell mediated killing of NALM-6 leukemia cells” value is “did not have a negative impact”.

The values above are taken from US20230277669A1, “USES OF UROLITHINS” (Amazentis SA, priority 2022, published 2023).
